This note sets out measurements from patent publication US6806359B1, “Hormone receptor compositions and methods” (The Salk Institute for Biological Studies, priority 1986, dated 2004).

Assay [1] has as its system rat GH 5′-flanking sequences in rat pituitary GC2 cells. Nature of the assay: T3 responsiveness of rat GH 5′-flanking sequence-CAT gene fusions transfected into GC2 cells. Format: cell-based. To be noted: for stimulation of CAT activity: GH −235 to −45 fused to tk promoter. An excerpt: […]. To overcome this problem, a rat prolactin enhancer element^11 was fused proximal to fragments of the rat GH gene containing 181 and 110 bp of 5′ flanking information. […].
To assay 3′ deletions, fragments of the rat Gh gene were fused to the herpes simplex virus thymidine kinase (HSV tk) promoter. A fragment of the Gh gene extending from position −235 to position −45 from the CAP site produced 2.5-and 2.3-fold stimulations of CAT activity when fused to the tk promoter in native and inverse orientation, respectively (FIG. 57). […]. […].
Thyroid hormone responsiveness of various gene fusions containing rat GH 5′-flanking sequences. FIG. 56, Responsiveness of 5′ and 3′ deletions of the rat GH gene. 5′-deleted fragments of the rat GH gene were fused to the CAT gene in a pSV2CAT-based vector^18, in which the SV40 origin of replication and promoter were removed. […]. The illustrated 3′-deleted fragments were fused to a tk promoter fragment, extending from position −197 to position +54 and placed proximal to the CAT gene in the same vector. […]. Error limits represent the standard error of the mean. Each construction was assayed two to five times. An represents SV40 polyadenylation sites. FIG. 58, Messenger RNA transcription initiation site analysis. The diagram indicates the […] primer complimentary to nucleotides 67 to 89 of the CAT coding sequence used to determine the CAP site of transcripts of plasmids containing the tk promoter. GC cells were transfected with test plasmids and hormone treated as described for the experiments presented in panels a and b. Primer extension analysis was performed on 50 micrograms total RNA. Lanes A and B represent the extension product from cells transfected with a plasmid containing the GH fragment extending from positions 235 to 45 from the CAP site fused to the tk promoter. Lanes C and D represent the extension product from cells transfected with a plasmid containing the tk promoter alone. No extension products were observed. […].
Fusions containing the rat prolactin enhancer were made by excising this fragment (corresponding to rat prolactin sequence nucleotide positions 1831-1530) from plasmid pPSS^11 and inserting it in reverse orientation proximal to the 5′ deletions of the growth hormone element. Fusions containing the HSV tk promoter were made by excising fragments of the GH enhancer from the plasmid GPO (ref. 11) and inserting them into the BamHI and SalI sites of a pSV2CAT-based expression vectors proximal to the tk promoter at positions −197 to +54. Alternatively, the GH enhancer was placed proximal to the promoter at positions −107 to +54 in a pUC8-based vector^20 by insertion into the BamHI and SalI polylinker sites. Site-directed mutagenesis of the GH enhancer element was performed by inserting the fragment from 235-45 bp from the CAP site into the BamHI and SalI sites of M13 mp18. A 21-base oligonucleotide was synthesized which corresponded to antisense GH nucleotides −188 to −157, in which nucleotides −177 to −166 were deleted and replaced by an A nucleotide. This oligonucleotide was used to delete bases −177 to −166 in the GH enhancer using the procedure of Kunkel^21. CAT activity was determined by radioassay of methylated chloramphenicol derivatives after thin layer chromatography^19. Primer extension was by the method of Elsholtz, et al.^12

For assay [2] the test system is unchanged. The assay is described as above. The assay is classed as cell-based. Conditions: 5′ deletion to −107 with rat prolactin enhancer.
In assay [3] the test system is hGR. Nature of the assay: hGR functional assay: CAT activity in CV-1 cells cotransfected with pRShGR alpha (or mutant) and pMTVCAT. The assay is classed as cell-based, human. Conditions: percentage of wild-type hGR activity; CV-1 cells cultured 2 days with 10 nM DEX. The source says: The assay system and strategy used to study the expression of functional hGR from the cloned cDNA (See Experimental Section I) is shown in FIG. 11. In these experiments, a glucocorticoid-responsive promoter/enhancer element linked to a reporter gene was introduced into a receptor-negative cell. […] For our assay, we chose to use the MTV LTR fused to the sequence coding for chloramphenicol acetyltransferase (CAT) (EC2.3.1.28). […] Cotransfection of pMTVCAT (or pGMCAT) with a receptor expression plasmid provides functional receptors that allow induction of CAT activity upon treatment of the transfected cells with glucocorticoid hormone. In addition, biochemical studies such as steroid binding activity and Western blot analysis of the expressed receptors can be performed simultaneously.
(§1) The cells are then cultured in the presence or absence of hormone. CV-1 cells were used to monitor induction of CAT activity, and COS cells were used to measure steroid-binding capacity and the expression of hGR protein.
CAT assays were performed as indicated in Experimental Procedures (See Section II. F.). C, chloramphenicol; AC, 3-acetylchloramphenicol.
The levels of CAT activity were plotted as percentages of the maximal response observe in a particular experiment.
Each plasmid preparation used for transfection was purified using two consecutive CsCl-EtBr equilibrium gradients. […]

In assay [4] the test system is hGR. Put plainly: Steroid binding assay ([^3H]DEX) in cytosol of COS cells transfected with hGR or mutants. Also on record: species or system human. To be noted: steroid-binding capacity as percentage of wild-type hGR. The protocol: as §1
COS cells were lysed in hypotonic buffer containing 10 mM Tris-HCl (pH 7.5), 10 mM NaCl, 1 mM EDTA, 5 micrograms/ml antipain, 5 micrograms/ml leupeptin, and 0.5 mM PMSF by Dounce homogenization and centrifuged 10 min. at 15,000×g to yield the cytosolic fraction. Incubations were performed in hypotonic buffer adjusted to 100 mM NaCl and contained 100 micrograms of protein from the cytosolic fraction and 2×10^−8[^3H]DEX (Amersham, 95 Ci/mmol) in total volume of 200 microliters. Nonspecific binding was measured by the addition of 2×10^−6 unlabeled DEX. Reactions were carried out at 0° C. for 2 hr., followed by a 5 min. incubation with 20 microliters of 50% dextran-coated charcoal (10:1 activated charcoal:dextran) and centrifugation at 15,000×g for 2 min. at 4° C. Supernatants were counted by liquid scintillation methods in a Beckman LS-7800 liquid scintillation spectrophotometer. Each assay usually gave 2500-3000 cpm [^3H] labeled steroid; unlabeled DEX competed for 70% of this binding.

`N[C@@H](Cc1cc(I)c(Oc2ccc(O)c(I)c2)c(I)c1)C(=O)O` [T3, 3,5,3′-triiodo-L-thyronine]: the “regulation of CAT expression by T3” value in assay [1] (5′ deletion to −235 of rat GH gene fused to CAT) was determined as 4.6 fold. For the same molecule, the “induction of CAT expression by T3” value in assay [1] (5′-deleted fragment to −181 with rat prolactin enhancer) was determined as 2.6 fold. In addition, in assay [1] (235-45 bp GH fragment fused to tk promoter, 10^−9M T3), the “increase of correctly initiated CAT mRNA (primer extension)” value was “about 4 fold”. Also, the “stimulation of CAT activity” value in assay [1] (inverse orientation) was found to be 2.3 fold; in assay [1] (native orientation) it was 2.5 fold. Besides, the “stimulation of CAT expression” value in assay [1] (construction G29TK) worked out at 2.9 fold. Moreover, the “stimulation of CAT expression (in words)” value was “five-fold” in assay [1] (construction G293TK, three tandem repeats) and “ninefold” in assay [1] (wild-type GH enhancer fused to tk promoter). Also, the “effect on CAT expression (in words)” value in assay [1] (mutant G delta 166/177 fused to tk promoter) is “no effect”. Besides, the “T3 regulation of CAT expression (in words)” value in assay [2] is “abolished T3 regulation”.

In the case of “hGR alpha: wild-type human glucocorticoid receptor, alpha form, 777 amino acids”, the “CAT Activity (%)” value in the assay with hGR [3] worked out at 100%. In the assay with hGR [4], the “DEX Binding (%)” value is recorded as 100%.
